Experiments:
115-mer = test: Crosslinkable Oligonucleotide Probe Analysis (COP) of sterilized PCR product; type: biochemical, HIV
From the text: Because of this, these isopsoralen-modified single strands should remain detectable by hybridization procedures. […] Preparation of Samples: The HIV 115-mer system with primers SK-38/SK-39 was used for the experiment (see Figure 36, "HIV Oligonucleotide System"). Two types of starting template were used: previously amplified 115-mer or genomic DNA, isolated from an individual known to be infected with HIV (MACS sample). For previously amplified 115-mer between 10^5 and 10^6 copies were used for starting template. For the genomic (MACS) sample, approximately 1 µg (3 x 10^5 copies) of genomic DNA were used. Two PCR samples were prepared for each type of template then amplification was carried out for either 20 or 30 cycles. One of the two PCR samples contained AMDMIP at 200 µg/ml while the other was AMDMIP free. Following amplification, the AMDMIP containing samples were divided and half were irradiated. Analysis (OH or COP) was then done on the three samples from each set (AMDMIP free, AMDMIP unirradiated, and AMDMIP irradiated) for each cycle number. The AMDMIP free samples served as control, the AMDMIP unirradiated sampes adressed the effect of non-covalently bound AMDMIP on detection, and AMDMIP irradiated samples addressed the effect of covalently bound AMDMIP on detection.
COP and OH assays were performed a follows. 10 µl of the PCR reaction mixture was added to 3.3 µl of "probe mix" [5'-labelled SK-19 (normal or monoadducted) at 10^-8 M containing EDTA and an appropriate salt mixture], overlaid with 30-40 µl of light mineral oil, then heated to 95-100°C for 5 minutes. For COP, the hybridization mixture as placed in the PTI device at 56°C and irradiated for 15 minutes. Following this, loading dyes (containing urea or formamide) were added, the sample heated to 95-100°C for 5 minutes, quick chilled on wet ice, then loaded on a denaturing PAGE gel followed by electrophoresis under denaturing conditions. For OH reactions, the hybridization mixture was incubated at 56°C for 30 minutes, loading dyes added, and aliquots loaded directly into a native PAGE gel followed by electrophoresis under native conditions. 1. Samples 1-6 contain previously amplified 115-mer that was re-amplified either 20 (samples 1,3,5) or 30 (Samples 2,4,6) cycles then detected by COP. Samples 1 & 2 are controls (without AMDMIP); samples 3 and 4 are (with AMDMIP and with light) sterilized samples; samples 5 & 6 are (with AMDMIP but without light) controls. The bands corresponding to amplified 115-mer crosslinked to labelled 41-mer probe (SK-19 MA) are the upper bands in Figure 46. Samples 11-16 are the same series except the MACS sample was used as template.

[1] = system: Molt-4 human genomic DNA target; test: Sterilization of genomic target before PCR (174 bp beta globin product); type: biochemical
Protocol: Four samples containing 1 µg of Molt-4 human genomic DNA target were prepared for PCR with primers KM 29 (5'-[…]) and HRI-12 (5'-[…]). These primers give a 174 bp product within the human beta globin gene. All four samples contained AMDMIP at 100 µg/ml, and were irradiated for 0, 5, 10 or 15 minutes prior to PCR amplification. […] Amplification were carried out in 1 x Taq buffer (50 mM KCl, 10 mM Tris pH 8.5, 2.5 mM MgCl2, 200 µg/ml gelatin), 175 µM each dNTP, 20 µM primer with 2.5 units of Taq polymerase and 100 µg/ml AMDMIP present during amplification. PCR was carried out for 30 cycles; one cycle = 30 sec at 94°C (denaturing), 30 sec at 55°C (primer annealing), and 60 sec at 72°C (extension). α-^32P-dCTP was used as an internal label. After amplification, the samples were analyzed for product by PAGE followed by autoradiaography.

[2] = Sample 4: previously amplified 115-mer, 30 cycles, with AMDMIP and with light
[3] = Sample 5: previously amplified 115-mer, 20 cycles, with AMDMIP but without light
[4] = Sample 6: previously amplified 115-mer, 30 cycles, with AMDMIP but without light
[5] = Sample 13: MACS genomic template, 20 cycles, with AMDMIP and with light
[6] = Sample 14: MACS genomic template, 30 cycles, with AMDMIP and with light
[7] = Sample 15: MACS genomic template, 20 cycles, with AMDMIP but without light
[8] = Sample 16: MACS genomic template, 30 cycles, with AMDMIP but without light

In the case of “4'-Aminomethyl-4,5'-dimethylisopsoralen [AMDMIP]”, the CPM (115-mer; Sample 3: previously amplified 115-mer, 20 cycles, with AMDMIP (200 µg/ml) and with light) is reported as 1944 CPM, the “CPM (%) relative to sample without AMDMIP” value (115-mer; Sample 3: previously amplified 115-mer, 20 cycles, with AMDMIP and with light) is reported as 62% and the CPM (115-mer; [2]) is reported as 36452 CPM. The “CPM (%) relative to sample without AMDMIP” value (115-mer; [2]) was 83%, the CPM (115-mer; [3]) was 4480 CPM and the “CPM (%) relative to sample without AMDMIP” value (115-mer; [3]) was 144%. The CPM (115-mer; [4]) was 39596 CPM, the “CPM (%) relative to sample without AMDMIP” value (115-mer; [4]) was 90% and the CPM (115-mer; [5]) was 460 CPM. The “CPM (%) relative to sample without AMDMIP” value (115-mer; [5]) was 52%, the CPM (115-mer; [6]) was 41777 CPM and the “CPM (%) relative to sample without AMDMIP” value (115-mer; [6]) was 78%. For the same substance, the CPM (115-mer; [7]) was 464 CPM, the “CPM (%) relative to sample without AMDMIP” value (115-mer; [7]) was 53% and the CPM (115-mer; [8]) was 35176 CPM. The “CPM (%) relative to sample without AMDMIP” value (115-mer; [8]) was 66%, the “impact of unirradiated AMDMIP on amplification” value ([1]; 100 µg/ml, data not shown) was “no significant impact on amplification” and the “amplification after irradiation in the presence of AMDMIP” value ([1]; AMDMIP 100 µg/ml, irradiated 0, 5, 10 or 15 minutes prior to PCR, 30 cycles) was “no amplification of the sterilized genomic target”.

— patent EP0497921B1, “METHOD FOR INHIBITING ENZYMATIC SYNTHESIS OF NUCLEIC ACIDS USING ISOPSORALENS” (ISAACS, Stephen T., priority 1989, dated 1991)
